Earlier results in patent publication US20090252711A1, “Stem Cells And Methods Of Making And Using Stem Cells” (priority 2006, published 2009).

Experiments:
cultured ASCs = settings: Cho et al. 2005
neural stem cells = settings: Marin-Husstege et al. 2002
lung fibroblast cells = settings: Mukhopadhyay et al. 2005
hTERT = settings: normal human cells; Hou et al.

CC(/C=C/C(=O)NO)=C\[C@@H](C)C(=O)c1ccc(N(C)C)cc1 [trichostatin A]
differentiation towards the osteogenic (bone) lineage (cultured ASCs): enhanced differentiation | differentiation of neural stem cells towards the astrocyte cell type (neural stem cells): not towards the astrocyte cell type | differentiation of neural stem cells towards the oligodendrocyte cell type (neural stem cells): blocked | telomerase activity (lung fibroblast cells): induced | expression of the gene hTERT (hTERT): upregulation

CCCC(CCC)C(=O)O [Valproic acid]
differentiation towards the osteogenic (bone) lineage (cultured ASCs): enhanced differentiation
